In patent US12185723B2, “Herbicidally active 3-phenylisoxazoline-5-carboxamides of s-containing cyclopentenylcarboxylic esters” (Bayer Aktiengesellschaft, priority 2019, dated 2025):

Legend:
Assay type in all cases: in vivo
Setaria viridis = test: Post-emergence herbicidal action against SETVI; conditions: visual rating about 3 weeks after treatment
In short: (§1)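 Weeds sown in sandy loam, greenhouse-grown 2 to 3 weeks and treated at the one-leaf stage. Compounds formulated as WP or EC were sprayed onto green parts as aqueous suspension/emulsion with 0.5% additive at 600 l/ha water. Activity rated visually after about 3 weeks versus untreated controls (100% = plants dead, 0% = like control).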

DIGSA = test: Post-emergence herbicidal action against DIGSA; conditions: visual rating about 3 weeks after treatment
In short: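 Greenhouse-grown plants sprayed at one-leaf stage (2–3 weeks after sowing) with WP or EC formulations as aqueous suspension/emulsion plus 0.5% additive, 600 l/ha water. Activity rated visually about 3 weeks later versus untreated controls, 100% = plants dead, 0% = like controls.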

Stellaria media = test: Post-emergence herbicidal action against STEME
Method: (§2) Post-Emergence Herbicidal Action Against Harmful Plants and Crop Plant Compatibility Seeds of monocotyledonous and dicotyledonous weeds and crop plants are placed in sandy loam in plastic or wood-fibre pots, covered with soil and cultivated in a greenhouse under controlled growth conditions. 2 to 3 weeks after sowing, the test plants are treated at the one-leaf stage. The compounds of the invention, formulated in the form of wettable powders (WP) or as emulsion concentrates (EC), are then sprayed onto the green parts of the plants as aqueous suspension or emulsion with addition of 0.5% additive at a water application rate of 600 l/ha (converted). After the test plants have been kept in the greenhouse under optimum growth conditions for about 3 weeks, the activity of the preparations is rated visually in comparison to untreated controls. For example, 100% activity=the plants have died, 0% activity=like control plants. [table]

Lolium rigidum = test: Post-emergence herbicidal action against LOLRI; conditions: visual rating about 3 weeks after treatment
In short: as §1

Veronica persica = test: Post-emergence herbicidal action against VERPE
In short: as §1

Amaranthus retroflexus = test: Post-emergence herbicidal action against AMARE
In short: as §1

Echinochloa crus-galli = test: Post-emergence herbicidal action against ECHCG; conditions: visual rating about 3 weeks after treatment
In short: as §1

Viola tricolor = test: Post-emergence herbicidal action against VIOTR
Method: as §2

Abutilon theophrasti = test: Post-emergence herbicidal action against ABUTH; conditions: 80 g a.i./ha, visual rating about 3 weeks after treatment
In short: as §1

Avena fatua = test: Post-emergence herbicidal action against AVEFA; conditions: visual rating about 3 weeks after treatment
In short: as §1

Pharbitis purpurea = test: Post-emergence herbicidal action against PHBPU
In short: as §1

Hordeum murinum = test: Post-emergence herbicidal action against HORMU
Method: as §2

Polygonum convolvulus = test: Post-emergence herbicidal action against POLCO
In short: as §1

Alopecurus myosuroides = test: Post-emergence herbicidal action against ALOMY; conditions: visual rating about 3 weeks after treatment
In short: as §1

Matricaria inodora = test: Post-emergence herbicidal action against MATIN; conditions: 80 g a.i./ha, visual rating about 3 weeks after treatment
Method: as §2

[1] = 80 g a.i./ha, visual rating about 3 weeks after treatment

C=CC1(C(=O)NC2CC=C(C(=O)OCCSC)C2)CC(c2cc(F)cc(F)c2)=NO1 (centres unmarked) [Example I-50]
Herbicidal action against [%] SETVI (Setaria viridis; 80 g a.i./ha): 90% | Herbicidal action against [%] DIGSA (DIGSA; 20 g a.i./ha): 90% | Herbicidal action against [%] DIGSA (DIGSA; 80 g a.i./ha): 90% | Herbicidal action against [%] STEME (Stellaria media; 20 g a.i./ha): 80% | Herbicidal action against [%] STEME (Stellaria media; 80 g a.i./ha): 90% | Herbicidal action against [%] LOLRI (Lolium rigidum; 80 g a.i./ha): 100% | Herbicidal action against [%] VERPE (Veronica persica; 80 g a.i./ha): 90% | Herbicidal action against [%] AMARE (Amaranthus retroflexus; 20 g a.i./ha): 90% | Herbicidal action against [%] AMARE (Amaranthus retroflexus; [1]): 90% | Herbicidal action against [%] ECHCG (Echinochloa crus-galli; 80 g a.i./ha): 90% | Herbicidal action against [%] VIOTR (Viola tricolor; 20 g a.i./ha): 80% | Herbicidal action against [%] VIOTR (Viola tricolor; 80 g a.i./ha): 90% | Herbicidal action against [%] ABUTH (Abutilon theophrasti): 80% | Herbicidal action against [%] AVEFA (Avena fatua; 20 g a.i./ha): 90% | Herbicidal action against [%] AVEFA (Avena fatua; 80 g a.i./ha): 100% | Herbicidal action against [%] PHBPU (Pharbitis purpurea; 20 g a.i./ha): 90% | Herbicidal action against [%] PHBPU (Pharbitis purpurea; 80 g a.i./ha): 90% | Herbicidal action against [%] HORMU (Hordeum murinum; 20 g a.i./ha): 100% | Herbicidal action against [%] HORMU (Hordeum murinum; 80 g a.i./ha): 100% | Herbicidal action against [%] POLCO (Polygonum convolvulus; 20 g a.i./ha): 80% | Herbicidal action against [%] POLCO (Polygonum convolvulus; 80 g a.i./ha): 90% | Herbicidal action against [%] ALOMY (Alopecurus myosuroides; 80 g a.i./ha): 100%

CSCCOC(=O)C1C=CC(NC(=O)C2(C)CC(c3cccc(F)c3)=NO2)C1 (centres unmarked) [Example I-34]
Herbicidal action against [%] SETVI (Setaria viridis; 20 g a.i./ha): 80% | Herbicidal action against [%] SETVI (Setaria viridis; 80 g a.i./ha): 80% | Herbicidal action against [%] DIGSA (DIGSA; 20 g a.i./ha): 80% | Herbicidal action against [%] DIGSA (DIGSA; 80 g a.i./ha): 80% | Herbicidal action against [%] STEME (Stellaria media; 20 g a.i./ha): 90% | Herbicidal action against [%] STEME (Stellaria media; 80 g a.i./ha): 90% | Herbicidal action against [%] LOLRI (Lolium rigidum; 20 g a.i./ha): 100% | Herbicidal action against [%] LOLRI (Lolium rigidum; 80 g a.i./ha): 100% | Herbicidal action against [%] VERPE (Veronica persica; 20 g a.i./ha): 90% | Herbicidal action against [%] VERPE (Veronica persica; 80 g a.i./ha): 90% | Herbicidal action against [%] ECHCG (Echinochloa crus-galli; 20 g a.i./ha): 80% | Herbicidal action against [%] ECHCG (Echinochloa crus-galli; 80 g a.i./ha): 80% | Herbicidal action against [%] VIOTR (Viola tricolor; 20 g a.i./ha): 90% | Herbicidal action against [%] VIOTR (Viola tricolor; 80 g a.i./ha): 80% | Herbicidal action against [%] ABUTH (Abutilon theophrasti): 80% | Herbicidal action against [%] AVEFA (Avena fatua; 20 g a.i./ha): 90% | Herbicidal action against [%] AVEFA (Avena fatua; 80 g a.i./ha): 90% | Herbicidal action against [%] PHBPU (Pharbitis purpurea; 20 g a.i./ha): 90% | Herbicidal action against [%] PHBPU (Pharbitis purpurea; 80 g a.i./ha): 90% | Herbicidal action against [%] HORMU (Hordeum murinum; 20 g a.i./ha): 80% | Herbicidal action against [%] HORMU (Hordeum murinum; 80 g a.i./ha): 80% | Herbicidal action against [%] POLCO (Polygonum convolvulus; 20 g a.i./ha): 80% | Herbicidal action against [%] POLCO (Polygonum convolvulus; 80 g a.i./ha): 90% | Herbicidal action against [%] ALOMY (Alopecurus myosuroides; 20 g a.i./ha): 100% | Herbicidal action against [%] ALOMY (Alopecurus myosuroides; 80 g a.i./ha): 100%

COC1(C(=O)NC2C=CC(C(=O)OCCSC)C2)CC(c2cccc(F)c2)=NO1 (mixture of isomers) [Example I-36]
Herbicidal action against [%] STEME (Stellaria media; 20 g a.i./ha): 80% | Herbicidal action against [%] STEME (Stellaria media; 80 g a.i./ha): 80% | Herbicidal action against [%] VERPE (Veronica persica; 20 g a.i./ha): 80% | Herbicidal action against [%] VERPE (Veronica persica; 80 g a.i./ha): 80% | Herbicidal action against [%] VIOTR (Viola tricolor; 20 g a.i./ha): 80% | Herbicidal action against [%] MATIN (Matricaria inodora): 80% | Herbicidal action against [%] ABUTH (Abutilon theophrasti): 80% | Herbicidal action against [%] AVEFA (Avena fatua; 80 g a.i./ha): 80% | Herbicidal action against [%] PHBPU (Pharbitis purpurea; 20 g a.i./ha): 80% | Herbicidal action against [%] PHBPU (Pharbitis purpurea; 80 g a.i./ha): 80% | Herbicidal action against [%] ALOMY (Alopecurus myosuroides; 80 g a.i./ha): 80%

C=CC1(C(=O)NC2C=CC(C(=O)OCCSC)C2)CC(c2cc(C)cc(F)c2)=NO1 (mixture of isomers) [Example I-47]
Herbicidal action against [%] SETVI (Setaria viridis; 20 g a.i./ha): 80% | Herbicidal action against [%] SETVI (Setaria viridis; 80 g a.i./ha): 80% | Herbicidal action against [%] DIGSA (DIGSA; 20 g a.i./ha): 80% | Herbicidal action against [%] DIGSA (DIGSA; 80 g a.i./ha): 90% | Herbicidal action against [%] STEME (Stellaria media; 20 g a.i./ha): 90% | Herbicidal action against [%] STEME (Stellaria media; 80 g a.i./ha): 90% | Herbicidal action against [%] LOLRI (Lolium rigidum; 20 g a.i./ha): 80% | Herbicidal action against [%] LOLRI (Lolium rigidum; 80 g a.i./ha): 80% | Herbicidal action against [%] VERPE (Veronica persica; 20 g a.i./ha): 80% | Herbicidal action against [%] VERPE (Veronica persica; 80 g a.i./ha): 80% | Herbicidal action against [%] AMARE (Amaranthus retroflexus; [1]): 100% | Herbicidal action against [%] ECHCG (Echinochloa crus-galli; 80 g a.i./ha): 80% | Herbicidal action against [%] VIOTR (Viola tricolor; 20 g a.i./ha): 90% | Herbicidal action against [%] MATIN (Matricaria inodora): 80% | Herbicidal action against [%] AVEFA (Avena fatua; 20 g a.i./ha): 80% | Herbicidal action against [%] AVEFA (Avena fatua; 80 g a.i./ha): 90% | Herbicidal action against [%] HORMU (Hordeum murinum; 80 g a.i./ha): 80% | Herbicidal action against [%] ALOMY (Alopecurus myosuroides; 20 g a.i./ha): 90% | Herbicidal action against [%] ALOMY (Alopecurus myosuroides; 80 g a.i./ha): 90%
